What was measured:
[1] = system: UPEC cells in human urine; test: Rapid AST by motion tracking (DAVG) of UPEC cells in human urine samples; type: cell-based, uropathogenic E. coli
Procedure: Referring now to FIG. 5A-5F, plots of DAVG of UPEC cells in human urine exposed to increasing concentrations of polymyxin B are there illustrated. UPEC cells (5×10^6 cfu/ml) were added to human urine samples, and DAVG was determined over time in the absence and presence of clinically-relevant concentrations of polymyxin B. The bars with vertical striping represent the baseline DAVG measurement of UPEC cells in urine. DAVG measurement of UPEC cells upon exposure to clinically-relevant concentrations of polymyxin B (bars with horizontal striping; antibiotics added immediately after the baseline measurement) and a high, bactericidal concentration of polymyxin B (bars with diagonal striping, 0.5 mg/ml added after the 90-min measurement). DAVG of cells in wells with (a) 0, (b) 0.25, (c) 1, (d) 2, (e) 4, and (f) 8 μg/ml of polymyxin B. *, p<0.05; ns, not significant.
To test the feasibility of an example of a method for analyzing clinically relevant samples, urine samples collected from healthy patients were spiked with UPEC bacterial cells. Following surface tethering, images were recorded from six different wells with polymyxin B doses varying from 0 to 8 μg/ml.
By repeating these experiments with increasing concentrations of UPEC cells in urine samples, the polymyxin B MBC90 min was determined to be between 4 and 8 μg/ml (Table 1). These MBC data corroborated the previous experiments with 5×10^6 cfu/ml and standard culturing methods which proceeded for 16 h (see also FIG. 17A-FIG. 17F).
An aliquot of frozen E. coliO157:H7 or E. coli CFT073 strain was thawed and used to inoculate 3 ml of Luria broth (LB) one day before the experiments. The overnight, saturated culture grown at 37° C. was diluted into fresh LB at a concentration of ˜10^7 cfu/ml and grown at 37° C. with gentle rotary mixing until the cultures reached an OD600 of 0.56, indicating the mid-logarithmic phase of growth. The corresponding concentration of the bacteria was 4.67×10^8 cfu/ml. Bacterial cells were collected by centrifugation at 2000×g for 15 min and resuspended in 1 ml PBS (1×) to an OD of 0.56. […]

[2] = system: UPEC cells spiked in human urine; test: Culture AST: bactericidal activity against UPEC in spiked urine samples by plating on Luria agar; type: cell-based, uropathogenic E. coli
Procedure: (§1) Broth microdilution assay was used to determine the polymyxin B MIC and MBC following a standard protocol.^54 Exponential phase UPEC CFT073 cultures were grown as described above, and bacterial suspensions (1×10^8 cfu/ml) were prepared in Mueller Hinton broth. Bacterial suspensions (100 μl of 5×10^6, 10^7, or 10^8 cfu/ml) were added to wells of 96-well microtiter plates containing polymyxin B (0.125-8 μg/ml). The MIC was determined by measuring the absorbance at 600 nm after 16 h standing incubation at 37° C. Cell viability and MBC values were determined by plating duplicate 10-fold serial dilutions for each sample onto Luria Broth agar plates and enumerating colonies after 16 h incubation at 37° C.
Referring now to FIG. 17A-FIG. 17F plots of bactericidal activity of polymyxin B against UPEC in spiked urine samples are shown. UPEC cells were added to human urine samples and exposed to different polymyxin B concentrations. At indicated times, 5 μl of each suspension was inoculated onto Luria agar. After incubation at 37° C. for 16 h, colonies were enumerated and recorded as cfu/ml. The bars with vertical striping represent the initial cfu/ml of UPEC cells in urine, and bars with horizontal striping represent cfu/ml of UPEC cells upon exposure to clinically-relevant concentrations of polymyxin B (antibiotics added immediately after the baseline measurement) in urine.

E. coli O157:H7 = test: Sub-μm motion tracking of antibody-tethered E. coli O157:H7 cells exposed to antibiotic; type: cell-based, Escherichia coli; settings: for Distance (root-mean-square displacement of cell center over 20 sec) of a single cell: 0.5 mg/ml polymyxin B
Description: Referring now to FIG. 2A an image of an E. coli O157:H7 bacterial cell with superimposed motion of the cell center over 20 sec shown as darkened dots is shown. E. coli O157:H7 cells 202 tethered to the glass slide were imaged. […] Scale Bar 203 is 1 μm. 43 The center of each bacterial cell was identified in each image frame (described in more detail below with reference to FIG. 6A-FIG. 6D) and plotted as data points 204 in FIG. 2A′.
As there shown, plot 202 plots motion data 204 in nm in X and Y coordinates ranging from −400 nm to 400 nm. The center positions of the bacterial cell (center) at different moments are shown and reveal the sub-μm scale motion of the cell. For quantitative analysis of the sub-μm motion of the bacterial cell, “Distance” is defined as the root-mean-square of the position over 20 seconds. Note that the motion ranges from about −200 nm to 200 nm displacement along both coordinates.
Referring now to FIG. 3A, images of a bacterial cell and displacement of the cell center in 1×PBS before (0 min) and after polymyxin B addition (2 and 5 min) are shown. Images 301, 302, 303 of a bacterial cell and displacement of the cell center 310 in 1×PBS before (0 min) and after polymyxin B addition (2 and 5 min). Antibiotic effects on the sub-μm motion were examined using a lethal dose of polymyxin B (0.5 mg/ml). Images 301, 302, 303 show the bright-field images of an alive bacterial cell before, 2 min, and 5 min, respectively after exposure to 0.5 mg/ml polymyxin B, where the positions of the bacterial cell before and after the exposure to polymyxin B, represented by indicia 310, 310A and 310B respectively. Scale bar 311 is set at 1 μm. #, p=0.065.
The average E. coli O157:H7 distance over 20 sec. in 1×PBS was 278 nm as indicated by bar 350, which reduced to 225 nm within 2 min after addition of 0.5 mg/ml polymyxin B, indicated by bar 352 and further to 65 nm at 5 min post-antibiotic exposure as plotted in plot 324 and represented by bar 354.
A robust AST method must work for a bacterial population that contains a mixture of loosely and tightly bound cells. […] For this mixed population of bound cells, the DAVG was 265 nm (FIG. 3C) before the addition of polymyxin B and dropped to 123 nm at 10 min post-antibiotic exposure (FIG. 3D).
Clean BK7 glass coverslips were coated with 1.5 nm chromium and 48 nm gold and used as sensing chips. The chips were rinsed with deionized water and ethanol multiple times followed by drying with nitrogen gas and cleaning with a hydrogen flame. For antibody surface, the cleaned chips were submerged in 1 mM PEG/PEG-COOH ethanol solution and left in the dark for 24 h to coat a PEG/PEG-COOH self-assembled monolayer (SAM) on each chip. The PEG/PEG-COOH SAM-coated chips were activated with 500 μl of a freshly prepared mixture of 0.1 M NHS and 0.4M EDC in 1:1 ratio to produce NHS ester receptors, which react with the primary amine groups on the antibodies via an amide bond. Chips with activated PEG/PEG-COOH SAM were cleaned with deionized water and blown dry with nitrogen gas. […]
(§2) To quantify bacterial motion, region props MATLAB command was used to obtain the “Centroid” 603 for each segmented cell in the binary images. The centroid is the X and Y coordinates of the bacterial cell center and is calculated as the mean of all non-zero pixels which the bacterial cell occupies. […]

UPEC CFT073 = test: Broth microdilution assay (MIC, MBC) in Mueller Hinton broth; type: cell-based, uropathogenic E. coli
Procedure: as §1
Referring now to FIG. 15, a plot measuring inhibition of UPEC in Mueller Hinton broth (MHB) after incubation with increasing polymyxin B concentrations is shown. Growth inhibition of UPEC in Mueller Hinton broth (MHB) after incubation with increasing polymyxin B concentrations. UPEC cells (5×10^6/ml) were incubated in MHB for 16 h at 37° C., followed by optical density measurements (OD600). Average and standard deviation OD600 measurements collected from triplicate experiments were plotted.
Referring now to FIG. 16, a table illustrating growth inhibition and bactericidal activity of the antibiotic polymyxin B is shown. After determining growth inhibition after […]

UPEC cells = test: Rapid AST by motion tracking (DAVG) of APTES-tethered UPEC cells in 1×PBS; type: cell-based, uropathogenic E. coli
Procedure: To apply the above motion-tracking method to AST of the clinically relevant UPEC strain, UPEC cells were tethered to the glass surface via APTES surface chemistry and conjugation to the amine group of a bacterial surface protein. Antibiotic dose-dependent experiments were performed in a multiplexed format using multi-well slides and a 40× objective. First, baseline images were captured at 0 min for each well. Subsequently, polymyxin B at clinically relevant concentrations (4, 2, 0.5, and 0.25 μg/ml) was added to different wells, and images were recorded at 15 min intervals for 75 min. Finally, as a positive control, a bactericidal dose (0.5 mg/ml) of polymyxin B was added to all wells, and images were recorded after incubation for 15 min (at 90 min). The control well (Well 1) initially harbored 100 tethered cells (as described below with reference to FIG. 8A) with an initial DAVG of 228 nm (FIG. 4A). Over time (0-75 min), the number of cells on the surface increased gradually (as described below with reference to FIG. 8A) due to replication of the surface-tethered cells (as described below with respect to FIG. 9A-10B). During the first 15 min, DAVG increased from 228 nm to 388 nm, followed by a gradual decrease from 388 to 227 nm over 75 min (FIG. 4A). […] DAVG vs. time was analyzed for polymyxin B varying between 0.5-4 μg/ml (FIG. 4B-FIG. 4E), showing clear correlation between the sub-μm motion and antibiotic concentration. […]
All E. coli O157:H7 experiment image sequences were collected at 106 fps at a pixel resolution of 640×480 using the Pike-032B CCD camera. […] The stage was translated to each well sequentially at the marker spot area and recorded 5 sec image sequences for each well. […]
as §2

[3] = after addition of 0.5 mg/ml polymyxin B

With polymyxin B the “DAVG change in urine” value ([1]; 4 and 8 μg/ml polymyxin B, p<0.05, to values similar to lethal 0.5 mg/ml dose) was “decreased significantly”, the “DAVG change over time in urine” value ([1]; 90 min incubation with 0.25, 1, or 2 μg/ml polymyxin B) was “either remained unchanged or increased” and the “Rapid AST MBC 90 min” value ([1]; UPEC concentration in urine 10^8 cfu/ml) was 4 µg/mL. The “Colonies on Luria agar after bactericidal concentration” value ([2]; 0.5 mg/ml added after the 90-min measurement, additional 15-min incubation) was “no colonies were detected”, the “MBC against UPEC cells spiked in human urine” value ([2]; plating on Luria agar, 16 h at 37° C.) was 2 µg/mL and the “Distance (root-mean-square displacement of cell center over 20 sec) of a single cell” value (E. coli O157:H7; 2 min after addition, 278 nm in 1×PBS before) was 225 nm. The “Distance (root-mean-square displacement of cell center over 20 sec) of a single cell” value (E. coli O157:H7; 5 min post-antibiotic exposure, 278 nm before) was 65 nm, the “Viable cells on overnight culturing after exposure” value (E. coli O157:H7; 5 min exposure to lethal dose 0.5 mg/ml) was “no viable cells” and the “DAVG change of completely tethered bacterial cells” value (E. coli O157:H7; [3]) was “no change”. For the same substance, the “DAVG change of loosely tethered bacterial cells” value (E. coli O157:H7; [3]) was “significant decrease”, the “Standard incubation (16 h) MBC” value (UPEC CFT073; quantitative plating after 16 h incubation) was 2 µg/mL and the “Minimum inhibitory concentration (MIC)” value (UPEC CFT073; standard microdilution broth assay, 16 h incubation) was 1 µg/mL. For the same substance, the “DAVG after lethal polymyxin B concentration” value (UPEC cells; control well, 0.5 mg/ml added after 75-min measurement, 227 nm before, p<0.05) was 64 nm, the “Number of cells on the surface over 75 min” value (UPEC cells; polymyxin B 0.5-4 μg/ml, indicating growth inhibition) was “remained constant” and the “Minimum bactericidal concentration at 75 min (MBC75 min)” value (UPEC cells; rapid AST, 75 min, 1×PBS) was 4 µg/mL.

Source: patent publication US11198897B2, “Rapid antibiotic susceptibility testing by tracking sub-micron scale motion of single bacterial cells” (Arizona Board of Regents on behalf of Arizona State …, priority 2017, dated 2021)
